Test results from patent US8580842B2, “Heteroaryl-substituted 1,3-dihydroindol-2-one derivatives and medicaments containing them” (Abbott GmbH & Co. KG, priority 2003, dated 2013).

Biological target: T1, human V1b receptors (Homo sapiens, UniProt P47901)
T1 construct: expressed in transfected cells; host or cells: CHO-K1 (membrane preparation V1b-3H2)
T1 sequence (P47901 1-424): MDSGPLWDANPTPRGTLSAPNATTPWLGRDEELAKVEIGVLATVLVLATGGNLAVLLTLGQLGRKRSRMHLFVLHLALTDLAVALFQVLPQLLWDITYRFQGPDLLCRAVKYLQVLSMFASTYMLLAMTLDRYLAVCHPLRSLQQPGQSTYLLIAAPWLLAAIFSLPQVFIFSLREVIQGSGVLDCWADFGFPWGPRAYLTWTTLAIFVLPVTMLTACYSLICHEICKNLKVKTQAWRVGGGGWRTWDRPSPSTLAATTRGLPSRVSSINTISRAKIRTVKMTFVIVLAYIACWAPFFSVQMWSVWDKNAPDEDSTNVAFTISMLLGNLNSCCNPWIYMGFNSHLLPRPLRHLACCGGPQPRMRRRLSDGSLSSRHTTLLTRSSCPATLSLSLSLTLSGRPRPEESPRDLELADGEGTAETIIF
Assay: Vasopressin V1b receptor binding assay
Conditions: membranes from CHO-K1 cells expressing human V1b receptors, displacement of 1.5 nM 3H-AVP; read-out: Binding affinity for the vasopressin V1b receptor
Protocol: Vasopressin V1b Receptor Binding Assay
The binding of the compounds of this invention to the vasopressin V1b receptor was determined with the following assay:
Compounds were dissolved in a concentration of 10^−2 M or 10^−3 M in DMSO. Further dilutions were performed with water.
The procedure for the binding assay was based on the method of Tahara et al. (Tahara A et al., Brit. J. Pharmacol. 125, 1463-1470 (1998)). Assays (0.250 ml) consisted of membranes (58 μg protein) from CHO-K1 cells permanently expressing human V1b receptors (preparation V1b-3H2, containing protease inhibitors, Roche complete Mini #1836170), 1.5 nM ^3H-AVP (8-Arg-vasopressin, NET 800) in incubation buffer (total binding) and different concentrations of test compound (displacement). Non-specific binding was defined with 10^−6 M AVP. Assays were performed in triplicate.
Incubation buffer: 50 mM Tris, 10 mM MgCl2, 0.1% BSA adjusted to pH 7.4 with HCl.
After incubation, 60 min at room temperature, bound and free radioligand was separated by filtration under vacuum through Whatman GF/B glass fibre mats using a Skatron cell harvester 7000.
Liquid scintillation counting was performed in beta-counters, Tricarb model 2000 or 2200CA (Packard). Dpm were calculated by a programme with standardisation using a standard quench series.
Evaluation of binding parameters was performed by non-linear regression analysis with SAS. The strategy of this program is similar to the program LIGAND described by Munson and Rodbard (Munson PJ and Rodbard D, Analytical Biochem 107, 220-239 (1980)).

Row | Ki [nM] | Compound
1 | < 50 | COc1ccc(S(=O)(=O)N2C(=O)C(c3cccnc3OC)(N3CC=C[C@H]3C(=O)N(C)C)c3cc(Cl)ccc32)c(OC)c1 (mixture of isomers) [Example 247, (S)-1-[5-Chloro-1-(2,4-dimethoxy-benzenesulfonyl)-3-(2-methoxy-pyridin-3-yl)-2-oxo-2,3-dihydro-1H-indol-3-yl]-2,5-dihydro-1H-pyrrole-2-carboxylic acid dimethylamide]
2 | < 50 | COC(=O)[C@@H]1CCCN1C1(c2cccnc2OC)C(=O)N(S(=O)(=O)c2ccc(OC)cc2OC)c2ccc(Cl)cc21 (mixture of isomers) [Example 248, (S)-1-[5-Chloro-1-(2,4-dimethoxy-benzenesulfonyl)-3-(2-methoxy-pyridin-3-yl)-2-oxo-2,3-dihydro-1H-indol-3-yl]-pyrrolidine-2-carboxylic acid methyl ester]
3 | 50 to 500 | COc1ccccc1C1(N2C[C@H](O)C[C@H]2C(=O)N(C)C)C(=O)N(S(=O)(=O)c2sc(Cl)cc2Br)c2ccc(Cl)cc21 (single isomer, unassigned) [Example 32]
4 | < 50 | COc1ccccc1C1(N2C[C@H](O)C[C@H]2C(=O)N(C)C)C(=O)N(S(=O)(=O)c2ccccn2)c2ccc(Cl)cc21 (single isomer, unassigned) [Example 47]
5 | < 50 | COc1ccccc1C1(N2C[C@H](O)C[C@H]2C(=O)N(C)C)C(=O)N(S(=O)(=O)c2ccc(Br)cn2)c2ccc(Cl)cc21 (single isomer, unassigned) [Example 48]
6 | < 50 | COc1ccccc1C1(N2C[C@H](O)C[C@H]2C(=O)N(C)C)C(=O)N(S(=O)(=O)c2ccc(C)cn2)c2ccc(Cl)cc21 (single isomer, unassigned) [Example 51]
7 | < 50 | COc1ccccc1C1(N2C[C@H](O)C[C@H]2C(=O)N(C)C)C(=O)N(S(=O)(=O)c2ccc(Cl)cn2)c2ccc(Cl)cc21 (single isomer, unassigned) [Example 52]
8 | < 50 | COc1ccccc1C1(N2C[C@H](O)C[C@H]2C(=O)N(C)C)C(=O)N(S(=O)(=O)c2ncc(Br)cc2C)c2ccc(Cl)cc21 (single isomer, unassigned) [Example 53]
9 | < 50 | COc1ccccc1C1(N2C[C@H](O)C[C@H]2C(=O)N(C)C)C(=O)N(S(=O)(=O)c2ccc(N3CCOCC3)nc2)c2ccc(Cl)cc21 (single isomer, unassigned) [Example 56]

The remaining lines, values behind:

Row | Compound | Ki [nM]
10 | COc1ccc(S(=O)(=O)N2C(=O)C(c3nc4ccccc4s3)(N3C[C@H](O)C[C@H]3C(=O)N(C)C)c3cc(Cl)ccc32)c(OC)c1 (single isomer, unassigned) [Example 2] | < 50
11 | COc1ccc(S(=O)(=O)N2C(=O)C(c3cnc(OC)nc3OC)(N3C[C@H](O)C[C@H]3C(=O)N(C)C)c3cc(Cl)ccc32)c(OC)c1 (single isomer, unassigned) [Example 3] | < 50
12 | COc1ccc(S(=O)(=O)N2C(=O)C(c3cccnc3OC)(N3C[C@H](O)C[C@H]3C(=O)N(C)C)c3cc(Cl)ccc32)c(OC)c1 (single isomer, unassigned) [Example 6] | 50 to 500
13 | COc1ccc(S(=O)(=O)N2C(=O)C(c3ncccc3OC)(N3C[C@H](O)C[C@H]3C(=O)N(C)C)c3cc(Cl)ccc32)c(OC)c1 (single isomer, unassigned) [Example 9] | < 50
14 | COc1ccc(S(=O)(=O)N2C(=O)C(c3cnccc3OC)(N3C[C@H](O)C[C@H]3C(=O)N(C)C)c3cc(Cl)ccc32)c(OC)c1 (single isomer, unassigned) [Example 10] | < 50
15 | COc1ccc(S(=O)(=O)N2C(=O)C(c3nccnc3OC)(N3C[C@H](O)C[C@H]3C(=O)N(C)C)c3cc(Cl)ccc32)c(OC)c1 (single isomer, unassigned) [Example 13] | < 50
16 | COc1ccccc1C1(N2C[C@H](O)C[C@H]2C(=O)N(C)C)C(=O)N(S(=O)(=O)c2cccc3cccnc23)c2ccc(Cl)cc21 (single isomer, unassigned) [Example 28] | < 50
17 | COc1ccccc1C1(N2C[C@H](O)C[C@H]2C(=O)N(C)C)C(=O)N(S(=O)(=O)c2ccc(Cl)s2)c2ccc(Cl)cc21 (single isomer, unassigned) [Example 31] | < 50
